The record followed here is patent US7855205B2, “Pyrimidinyl substituted fused-pyrrolyl compounds useful in treating kinase disorders” (Janssen Pharmaceutica NV, priority 2004, dated 2010).

Usually IC50 stands for the concentration that inhibits the measured activity by half.

One assay relates to HCT-116 colon carcinoma. As to the kind of experiment: Inhibition of cell proliferation (14C-thymidine incorporation), HCT-116. The class given is cell-based. Particulars: Homo sapiens, HCT-116, HCT116. As to the method: (§1) The ability of a test compound to inhibit the proliferation of cell growth was determined by measuring incorporation of ^14C-labelled thymidine into newly synthesized DNA within the cells. This method was used on cell lines derived from carcinomas originating from several tissues such as HeLa cervical adenocarcinoma (American Type Culture Collection (ATCC), Virginia, Cat. #CCL-2), A375 malignant melanoma (ATCC CRL-1619), HCT-116 colon carcinoma (CCL-247). In this way the effect of a compound on cell growth of cells with many different phenotypes can be determined. Cells were trypsinized and counted and 3000-8000 cells were added to each well of a 96-well CytoStar tissue culture treated scintillating microplate (Amersham #RPNQ0160) in complete medium in a volume of 100 μL. Cells were incubated for 24 hours in complete medium at 37° C. in an atmosphere containing 5% CO2.
(§2) Next, 1 μL of test compound in 100% DMSO was added to the wells of the plate. DMSO only was added to control wells. Cells were incubated for 24 more hours in complete medium at 37° C. in an atmosphere containing 5% CO2. Methyl ^14C-thymidine 56 mCi/mmol (NEN #NEC568 or Amersham #CFA532) was diluted in complete medium and 0.2 uCi/well was added to each well of the CytoStar plate in a volume of 20 μl. The plate was incubated for 24 hours at 37° C. plus 5% CO2 in drug plus ^14C-thymidine. The contents of the plate discarded into a ^14C radioactive waste container by inverting the plate and the plate was washed twice with 200 μL PBS.
(§3) 200 μL of PBS is added to each well. The top of the plate was sealed with a transparent plate sealer and a white plate backing sealer (Packard #6005199) was applied to the bottom of the plate. The degree of methyl ^14C-thymidine incorporation was quantified on a Packard Top Count.
On the technique in general: Incorporation of labelled thymidine or its analogues reports DNA synthesis.

For a further assay, the target named is T1, Aurora-A (Mus musculus, UniProt P97477).
T1 construct: made in house; host or cells: sf9 insect cells
T1 sequence (P97477 1-395): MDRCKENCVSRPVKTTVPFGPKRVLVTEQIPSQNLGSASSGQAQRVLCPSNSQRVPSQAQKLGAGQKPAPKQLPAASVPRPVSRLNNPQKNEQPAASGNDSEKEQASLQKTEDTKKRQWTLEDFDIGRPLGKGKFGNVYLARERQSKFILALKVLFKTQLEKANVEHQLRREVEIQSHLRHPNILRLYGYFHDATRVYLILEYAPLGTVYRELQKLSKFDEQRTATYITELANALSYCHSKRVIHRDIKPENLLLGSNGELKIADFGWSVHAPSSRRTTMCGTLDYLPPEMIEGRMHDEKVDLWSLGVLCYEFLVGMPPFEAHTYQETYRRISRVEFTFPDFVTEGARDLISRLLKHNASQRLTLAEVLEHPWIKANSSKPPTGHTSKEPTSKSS
Description: Aurora-A Screening Assay. Particulars: 33P-γ-ATP incorporation, 10 μM ATP. In kind it is biochemical, murine. As to the method:
(§4) A kinase reaction mixture was prepared containing 50 mM Tris-HCl pH=8, 10 mM MgCl2, 0.1 mM […], 1 mM DTT, 10 μM ATP, 0.025 μM biotinylated histone-HI peptide substrate and […] per well ^33P-γ-ATP (2000-3000 Ci/mmol). 70 μL of the kinase reaction mixture was dispensed into the well of a streptavidin coated FlashPlate™ (Cat. # SMP103, NEN, Boston, Mass.). Then 1 μL of test compound stock in 100% DMSO was added to the wells resulting in a final concentration of 1% DMSO in the reaction with a 100 μL final reaction volume.
(§5) The CDK1:Cyclin-B protein was then diluted in 50 mM Tris-HCl pH=8.0, 0.1% BSA at a concentration of 1 ng per μL and 30 μL (30 ng enzyme per test well) was added to each well to initiate the reaction. The reaction was incubated for one hour at 30° C. At the end of the 1 h incubation, the reaction was terminated by aspirating the mixture from the plate and washing the wells twice with PBS containing 100 mM EDTA. The histone-H1 biotinylated peptide substrate became immobilized on the Flashplate™ and the incorporation of ^33P-γ-ATP was measured by reading the plate on a scintillation counter. Inhibition of the enzymatic activity of CDK1 was measured by observing a reduced amount of ^33P-γ-ATP incorporated into the immobilized peptide.
The Aurora-A kinase assay was carried out using the CDK kinase assay procedure except that the enzyme was replaced with the full length protein encoding the murine Aurora-A (Accession# GB BC014711) expressed and purified from sf9 insect cells.
(§6) • VEGF-R2, HER2 and (Biotin)[…]-Amide • RET kinases • CDK1 (Biotin)[…]-Amide • Aurora-A kinase Biotin-[…]-Amide

A further assay has as its target T2, CDK1:Cyclin-B (Homo sapiens, UniProt P06493).
T2 construct: purchased New England Biolabs, Beverly, Mass; 6020; host or cells: insect cells
As to the kind of experiment: CDK1 Screening Assay. Particulars: 33P-γ-ATP incorporation, 10 μM ATP. In kind it is biochemical. Here is the method: as §4, §5
The CDK1 used was isolated from insect cells expressing both the human CDK1 catalytic subunit and its positive regulatory subunit cyclin B (New England Biolabs, Beverly, Mass., Cat. #6020).
as §6

The next assay has as its target T3, VEGF-R2 (Rattus norvegicus, UniProt O08775).
T3 construct: polyhistidine (N)
As to the kind of experiment: VEGF-R2 Screening Assay. The class given is biochemical. The settings on record: 33P-γ-ATP incorporation, 10 μM ATP. Here is the method: as §5, with “Then 1 μL of test compound stock in 100% DMSO was added to the wells resulting in a final concentration of 1% DMSO in the reaction with a 100 μL final reaction volume. The CDK1:Cyclin-B” for “The CDK1:Cyclin-B”, “immobilized peptide. The VEGF-R kinase assay was carried out using the CDK kinase assay procedure except that the enzyme was replaced with the VEGF-R2 fusion protein containing a polyhistidine tag at the N-terminus followed by amino acids 786-1343 of the rat VEGF-R2 kinase domain (GenBank Accession #U93306).” for “immobilized peptide.”

The subject of the next assay is A375 malignant melanoma. Description: Inhibition of cell proliferation (14C-thymidine incorporation), A375. The class given is cell-based, human. Particulars: Homo sapiens, A-375. As to the method:
as §1, §2, §3

For assay [1], the system named is HeLa cervical adenocarcinoma. Description: Inhibition of cell proliferation (14C-thymidine incorporation), HeLa.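 Note: HeLa cells in 96-well scintillating plates, compound for 24 h then 24 h more with 14C-thymidine, counting label built into new DNA against DMSO-only control wells.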 The settings on record: Homo sapiens. In kind it is cell-based.

T3 sequence (O08775 786-1343): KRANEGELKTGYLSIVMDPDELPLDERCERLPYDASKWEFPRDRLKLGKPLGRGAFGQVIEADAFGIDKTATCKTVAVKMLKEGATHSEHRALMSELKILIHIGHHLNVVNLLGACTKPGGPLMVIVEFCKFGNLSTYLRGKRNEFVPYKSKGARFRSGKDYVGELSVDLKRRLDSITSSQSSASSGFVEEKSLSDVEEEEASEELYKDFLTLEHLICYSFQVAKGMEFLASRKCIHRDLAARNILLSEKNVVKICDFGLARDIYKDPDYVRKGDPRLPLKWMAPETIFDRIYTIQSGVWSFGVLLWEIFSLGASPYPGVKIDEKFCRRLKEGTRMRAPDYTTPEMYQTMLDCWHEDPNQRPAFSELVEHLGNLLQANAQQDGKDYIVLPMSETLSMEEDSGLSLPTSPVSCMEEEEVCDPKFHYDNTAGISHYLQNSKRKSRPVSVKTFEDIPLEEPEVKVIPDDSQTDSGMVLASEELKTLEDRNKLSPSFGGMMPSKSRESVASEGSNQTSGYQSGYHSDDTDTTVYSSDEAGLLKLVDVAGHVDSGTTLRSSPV
T2 sequence (P06493 whole entry): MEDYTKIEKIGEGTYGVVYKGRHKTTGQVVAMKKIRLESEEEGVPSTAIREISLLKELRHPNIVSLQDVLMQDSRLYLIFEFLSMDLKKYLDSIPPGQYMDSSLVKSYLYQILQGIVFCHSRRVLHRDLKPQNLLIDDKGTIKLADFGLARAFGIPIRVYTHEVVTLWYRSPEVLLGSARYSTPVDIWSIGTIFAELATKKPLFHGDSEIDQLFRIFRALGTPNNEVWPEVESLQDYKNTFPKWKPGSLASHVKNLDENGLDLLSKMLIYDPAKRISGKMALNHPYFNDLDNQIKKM
T2 sequence (P14635 whole entry partner): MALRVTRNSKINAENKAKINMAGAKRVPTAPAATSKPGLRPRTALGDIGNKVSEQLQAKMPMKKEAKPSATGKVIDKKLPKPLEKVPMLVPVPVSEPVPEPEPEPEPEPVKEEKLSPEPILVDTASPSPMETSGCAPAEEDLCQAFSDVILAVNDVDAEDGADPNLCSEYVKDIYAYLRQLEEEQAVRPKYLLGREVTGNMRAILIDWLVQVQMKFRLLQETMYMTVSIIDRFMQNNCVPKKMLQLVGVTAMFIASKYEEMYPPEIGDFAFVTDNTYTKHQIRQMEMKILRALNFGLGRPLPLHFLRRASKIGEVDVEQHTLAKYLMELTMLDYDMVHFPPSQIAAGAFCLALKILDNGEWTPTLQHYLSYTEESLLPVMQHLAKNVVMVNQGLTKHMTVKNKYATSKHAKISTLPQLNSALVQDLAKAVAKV

Regarding `FC(F)(F)c1ccccc1Nc1nccc(-c2c[nH]c3ncccc23)n1` [Cpd 29, (2-trifluoromethylphenyl)-[4-(1H-pyrrolo[2,3-b]pyridin-3-yl)-pyrimidin-2-yl]-amine], the IC50 with HCT-116 colon carcinoma was determined as 0.381 µM; against Aurora-A, 1 µM; against CDK1:Cyclin-B, 0.056 µM; on VEGF-R2, 1.97 µM; with A375 malignant melanoma it was 403 nM; in assay [1] it was 0.392 µM.
As to `CC(=O)NC1CCN(c2nccc(-c3c[nH]c4ncccc34)n2)CC1` [Cpd 63, N-{1-[4-(1H-pyrrolo[2,3-b]pyridin-3-yl)-pyrimidin-2-yl]-piperidin-4-yl}acetamide], the IC50 in the assay on HCT-116 colon carcinoma came to 40 µM; on Aurora-A, 4.19 µM; on CDK1:Cyclin-B, 2.11 µM; against VEGF-R2, 10 µM; in the assay on A375 malignant melanoma it was 16400 nM; in assay [1] it was 34.7 µM.
As to `N[C@H]1CC[C@H](Nc2nccc(-c3c[nH]c4ncccc34)n2)CC1` [Cpd 42, trans-N-[4-(1H-Pyrrolo[2,3-b]pyridin-3-yl)-pyrimidin-2-yl]-cyclohexane-1,4-diamine], the IC50 with HCT-116 colon carcinoma was 0.000353 µM; on Aurora-A, 0.917 µM; at CDK1:Cyclin-B it was 0.002 µM; against VEGF-R2 it was 7.88 µM; in the assay on A375 malignant melanoma, 0.743 nM; in assay [1], 0.00112 µM.
For `c1cnc2[nH]cc(-c3ccnc(NC4CCCC4)n3)c2c1` [Cpd 14, Cyclopentyl-[4-(1H-pyrrolo[2,3-b]pyridin-3-yl)-pyrimidin-2-yl]-amine], the IC50 was 0.078 µM in the assay on HCT-116 colon carcinoma; 0.885 µM against Aurora-A; 0.088 µM on CDK1:Cyclin-B; 2.23 µM against VEGF-R2; 93 nM in the assay on A375 malignant melanoma; 0.059 µM in assay [1].
With `CNCC[C@H]1CC[C@H](Nc2nccc(-c3c[nH]c4ncccc34)n2)CC1` [Cpd 78, trans-[4-(2-Methylaminoethyl)-cyclohexyl]-[4-(1H-pyrrolo[2,3-b]pyridin-3-yl)-pyrimidin-2-yl]-amine], the IC50 in the assay with HCT-116 colon carcinoma stood at 0.00313 µM; at Aurora-A it was 1.01 µM; at CDK1:Cyclin-B it was 0.00426 µM; against VEGF-R2 it was 6.71 µM; in the assay on A375 malignant melanoma, 2.25 nM; in assay [1] it was 0.00374 µM.
Consider `Cc1[nH]c2ncccc2c1-c1ccnc(N[C@H]2CC[C@H](N)CC2)n1` [Cpd 57, trans-N-[4-(2-Methyl-1H-pyrrolo[2,3-b]pyridin-3-yl)-pyrimidin-2-yl]-cyclohexane-1,4-diamine], for which the IC50 in the assay on HCT-116 colon carcinoma turned out to be 0.0732 µM; against Aurora-A it was 3.98 µM; against CDK1:Cyclin-B it was 0.283 µM; at VEGF-R2, 10 µM; in the assay with A375 malignant melanoma, 97.3 nM; in assay [1] it was 0.135 µM.
Take `Fc1ccccc1Nc1nccc(-c2c[nH]c3ncccc23)n1` [Cpd 31, (2-Fluorophenyl)-[4-(1H-pyrrolo[2,3-b]pyridin-3-yl)-pyrimidin-2-yl]-amine]: the IC50 in the assay with HCT-116 colon carcinoma stood at 0.105 µM; against Aurora-A, 0.1 µM; against CDK1:Cyclin-B, 0.046 µM; on VEGF-R2, 1 µM; in the assay with A375 malignant melanoma it was 110 nM; in assay [1], 0.0992 µM.
With `Cc1ccc(Nc2nccc(-c3c[nH]c4ncccc34)n2)c(C)c1` [Cpd 33, (2,4-Dimethylphenyl)-[4-(1H-pyrrolo[2,3-b]pyridin-3-yl)-pyrimidin-2-yl]-amine], the IC50 in the assay with HCT-116 colon carcinoma came out at 0.000542 µM; at Aurora-A, 0.408 µM; on CDK1:Cyclin-B, 0.001 µM; against VEGF-R2, 1.14 µM; in the assay on A375 malignant melanoma it was 0.0467 nM; in assay [1], 0.000993 µM.
Turning to `NC1CCN(c2nccc(-c3c[nH]c4ncccc34)n2)CC1` [Cpd 62, 1-[4-(1H-pyrrolo[2,3-b]pyridin-3-yl)-pyrimidin-2-yl]-piperidin-4-ylamine], the IC50 in the assay with HCT-116 colon carcinoma was found to be 0.525 µM; on Aurora-A, 0.762 µM; against CDK1:Cyclin-B it was 0.5 µM; against VEGF-R2, 2.67 µM; with A375 malignant melanoma it was 622 nM; in assay [1], 1.08 µM.
`c1cnc2[nH]cc(-c3ccnc(NC4CCOCC4)n3)c2c1` [Cpd 60, (Tetrahydropyran-4-yl)-[4-(1H-pyrrolo[2,3-b]pyridin-3-yl)-pyrimidin-2-yl]-amine]: the IC50 in the assay on HCT-116 colon carcinoma was determined as 0.0175 µM; against Aurora-A it was 1.51 µM; on CDK1:Cyclin-B, 0.0373 µM; on VEGF-R2, 2.46 µM; in the assay with A375 malignant melanoma, 41.7 nM; in assay [1], 0.0411 µM.
Turning to `COc1ccc(Nc2nccc(-c3c[nH]c4ncccc34)n2)c(C)c1` [Cpd 27, (4-Methoxy-2-methylphenyl)-[4-(1H-pyrrolo[2,3-b]pyridin-3-yl)-pyrimidin-2-yl]-amine], the IC50 is 0.00639 µM in the assay on HCT-116 colon carcinoma; 0.357 µM at Aurora-A; 0.002 µM against CDK1:Cyclin-B; 1 µM at VEGF-R2; 4.5 nM in the assay on A375 malignant melanoma; 0.0072 µM in assay [1].
Regarding `c1cnc2[nH]cc(-c3ccnc(N[C@H]4CC5CCC4C5)n3)c2c1` (stereo partly drawn) [Cpd 59, (2S)-Bicyclo[2.2.1]hept-2-yl-[4-(1H-pyrrolo[2,3-b]pyridin-3-yl)-pyrimidin-2-yl]-amine], the IC50 in the assay on HCT-116 colon carcinoma turned out to be 0.379 µM; at Aurora-A, 0.437 µM; on CDK1:Cyclin-B it was 0.062 µM; at VEGF-R2, 0.55 µM; in the assay with A375 malignant melanoma it was 251 nM; in assay [1], 0.291 µM.
As to `Brc1ccccc1Nc1nccc(-c2c[nH]c3ncccc23)n1` [Cpd 28, (2-Bromophenyl)-[4-(1H-pyrrolo[2,3-b]pyridin-3-yl)-pyrimidin-2-yl]-amine], the IC50 was 0.118 µM in the assay on HCT-116 colon carcinoma; 0.175 µM on Aurora-A; 0.0127 µM against CDK1:Cyclin-B; 1 µM against VEGF-R2; 67.6 nM in the assay on A375 malignant melanoma; 0.0952 µM in assay [1].
